Assay results taken from ChEMBL document CHEMBL4020712, “Synthesis of new N3-substituted dihydropyrimidine derivatives as L-/T- type calcium channel blockers” (Eur J Med Chem, 2017).
Calls of active or inactive are those of the source. The rule behind the calls is not given here.

What was measured:
[1] = molecular target: Voltage-dependent T-type calcium channel subunit alpha-1H (Homo sapiens) (UniProt O95180); assay: Inhibition of human Cav3.2 alpha1 expressed in human tsA-201 cells assessed as tonic block at 10 uM at holding potential of -110 mV by whole cell patch clamp method; type: cell-based
[2] = molecular target: Cav1.2 (voltage-dependent L-type calcium channel subunit alpha-1C) (Rattus norvegicus, UniProt P22002); assay: Inhibition of rat Cav1.2 expressed in human tsA-201 cells co-expressing Cavbeta1b/Cavalpha2delta1 assessed as tonic block at 10 uM at holding potential of -90 mV by whole cell patch clamp method relative to control; type: cell-based
Chain of Cav1.2 (voltage-dependent L-type calcium channel subunit alpha-1C) (P22002 whole entry): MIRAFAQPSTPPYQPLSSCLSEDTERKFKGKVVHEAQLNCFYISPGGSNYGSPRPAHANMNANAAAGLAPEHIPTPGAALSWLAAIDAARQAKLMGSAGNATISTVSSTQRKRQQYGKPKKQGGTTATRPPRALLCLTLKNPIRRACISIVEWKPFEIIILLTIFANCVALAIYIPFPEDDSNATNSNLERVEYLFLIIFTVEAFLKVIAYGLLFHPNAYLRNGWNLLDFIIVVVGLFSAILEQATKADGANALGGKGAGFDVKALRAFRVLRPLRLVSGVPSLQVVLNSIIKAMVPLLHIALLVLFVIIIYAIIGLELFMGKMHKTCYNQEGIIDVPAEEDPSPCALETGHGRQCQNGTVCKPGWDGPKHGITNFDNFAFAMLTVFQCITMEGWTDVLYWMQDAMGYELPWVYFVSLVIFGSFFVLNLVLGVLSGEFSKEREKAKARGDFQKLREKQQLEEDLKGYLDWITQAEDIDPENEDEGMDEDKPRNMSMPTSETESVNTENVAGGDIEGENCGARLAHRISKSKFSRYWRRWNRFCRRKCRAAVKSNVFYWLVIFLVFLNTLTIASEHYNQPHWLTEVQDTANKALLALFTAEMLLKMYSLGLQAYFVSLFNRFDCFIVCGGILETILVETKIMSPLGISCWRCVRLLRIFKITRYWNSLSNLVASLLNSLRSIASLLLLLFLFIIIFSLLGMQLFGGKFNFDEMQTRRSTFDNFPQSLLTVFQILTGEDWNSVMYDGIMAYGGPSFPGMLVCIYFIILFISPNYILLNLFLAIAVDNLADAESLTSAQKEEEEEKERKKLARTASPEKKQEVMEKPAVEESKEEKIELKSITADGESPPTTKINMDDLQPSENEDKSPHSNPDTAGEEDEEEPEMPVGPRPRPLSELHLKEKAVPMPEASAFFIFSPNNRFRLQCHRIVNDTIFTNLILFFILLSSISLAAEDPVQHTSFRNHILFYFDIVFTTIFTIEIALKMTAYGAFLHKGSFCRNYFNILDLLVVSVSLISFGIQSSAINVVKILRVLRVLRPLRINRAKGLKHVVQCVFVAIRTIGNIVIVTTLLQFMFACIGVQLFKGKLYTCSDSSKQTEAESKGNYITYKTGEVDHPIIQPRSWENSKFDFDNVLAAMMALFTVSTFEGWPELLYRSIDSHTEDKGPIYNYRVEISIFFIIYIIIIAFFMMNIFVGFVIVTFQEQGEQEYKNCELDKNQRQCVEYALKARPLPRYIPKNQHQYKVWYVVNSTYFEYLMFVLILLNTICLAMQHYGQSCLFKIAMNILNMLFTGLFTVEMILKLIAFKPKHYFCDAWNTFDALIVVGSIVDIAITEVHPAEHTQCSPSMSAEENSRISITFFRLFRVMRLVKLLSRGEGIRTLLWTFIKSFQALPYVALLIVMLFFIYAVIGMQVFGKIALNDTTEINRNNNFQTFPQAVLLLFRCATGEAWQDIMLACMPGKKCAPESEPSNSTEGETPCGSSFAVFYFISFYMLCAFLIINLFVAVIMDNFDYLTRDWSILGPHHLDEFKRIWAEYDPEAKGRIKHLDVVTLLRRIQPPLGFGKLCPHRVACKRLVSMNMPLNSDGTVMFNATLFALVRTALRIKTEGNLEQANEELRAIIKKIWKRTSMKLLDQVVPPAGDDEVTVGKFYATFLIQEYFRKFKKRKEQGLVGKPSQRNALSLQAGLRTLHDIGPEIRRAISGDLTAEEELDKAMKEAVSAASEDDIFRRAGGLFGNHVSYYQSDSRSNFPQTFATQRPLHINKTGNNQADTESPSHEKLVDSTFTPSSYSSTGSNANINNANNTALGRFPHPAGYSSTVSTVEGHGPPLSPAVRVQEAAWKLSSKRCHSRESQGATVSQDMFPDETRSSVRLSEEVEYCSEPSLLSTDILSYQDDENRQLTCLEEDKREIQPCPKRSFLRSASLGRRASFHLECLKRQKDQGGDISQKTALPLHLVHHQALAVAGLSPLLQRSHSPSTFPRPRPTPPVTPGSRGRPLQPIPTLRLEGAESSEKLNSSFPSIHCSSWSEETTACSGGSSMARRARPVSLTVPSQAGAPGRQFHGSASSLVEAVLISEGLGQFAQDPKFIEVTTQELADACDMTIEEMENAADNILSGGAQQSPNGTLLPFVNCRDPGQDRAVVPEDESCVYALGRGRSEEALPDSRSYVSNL

Chain of Voltage-dependent T-type calcium channel subunit alpha-1H (Homo sapiens) (O95180 whole entry): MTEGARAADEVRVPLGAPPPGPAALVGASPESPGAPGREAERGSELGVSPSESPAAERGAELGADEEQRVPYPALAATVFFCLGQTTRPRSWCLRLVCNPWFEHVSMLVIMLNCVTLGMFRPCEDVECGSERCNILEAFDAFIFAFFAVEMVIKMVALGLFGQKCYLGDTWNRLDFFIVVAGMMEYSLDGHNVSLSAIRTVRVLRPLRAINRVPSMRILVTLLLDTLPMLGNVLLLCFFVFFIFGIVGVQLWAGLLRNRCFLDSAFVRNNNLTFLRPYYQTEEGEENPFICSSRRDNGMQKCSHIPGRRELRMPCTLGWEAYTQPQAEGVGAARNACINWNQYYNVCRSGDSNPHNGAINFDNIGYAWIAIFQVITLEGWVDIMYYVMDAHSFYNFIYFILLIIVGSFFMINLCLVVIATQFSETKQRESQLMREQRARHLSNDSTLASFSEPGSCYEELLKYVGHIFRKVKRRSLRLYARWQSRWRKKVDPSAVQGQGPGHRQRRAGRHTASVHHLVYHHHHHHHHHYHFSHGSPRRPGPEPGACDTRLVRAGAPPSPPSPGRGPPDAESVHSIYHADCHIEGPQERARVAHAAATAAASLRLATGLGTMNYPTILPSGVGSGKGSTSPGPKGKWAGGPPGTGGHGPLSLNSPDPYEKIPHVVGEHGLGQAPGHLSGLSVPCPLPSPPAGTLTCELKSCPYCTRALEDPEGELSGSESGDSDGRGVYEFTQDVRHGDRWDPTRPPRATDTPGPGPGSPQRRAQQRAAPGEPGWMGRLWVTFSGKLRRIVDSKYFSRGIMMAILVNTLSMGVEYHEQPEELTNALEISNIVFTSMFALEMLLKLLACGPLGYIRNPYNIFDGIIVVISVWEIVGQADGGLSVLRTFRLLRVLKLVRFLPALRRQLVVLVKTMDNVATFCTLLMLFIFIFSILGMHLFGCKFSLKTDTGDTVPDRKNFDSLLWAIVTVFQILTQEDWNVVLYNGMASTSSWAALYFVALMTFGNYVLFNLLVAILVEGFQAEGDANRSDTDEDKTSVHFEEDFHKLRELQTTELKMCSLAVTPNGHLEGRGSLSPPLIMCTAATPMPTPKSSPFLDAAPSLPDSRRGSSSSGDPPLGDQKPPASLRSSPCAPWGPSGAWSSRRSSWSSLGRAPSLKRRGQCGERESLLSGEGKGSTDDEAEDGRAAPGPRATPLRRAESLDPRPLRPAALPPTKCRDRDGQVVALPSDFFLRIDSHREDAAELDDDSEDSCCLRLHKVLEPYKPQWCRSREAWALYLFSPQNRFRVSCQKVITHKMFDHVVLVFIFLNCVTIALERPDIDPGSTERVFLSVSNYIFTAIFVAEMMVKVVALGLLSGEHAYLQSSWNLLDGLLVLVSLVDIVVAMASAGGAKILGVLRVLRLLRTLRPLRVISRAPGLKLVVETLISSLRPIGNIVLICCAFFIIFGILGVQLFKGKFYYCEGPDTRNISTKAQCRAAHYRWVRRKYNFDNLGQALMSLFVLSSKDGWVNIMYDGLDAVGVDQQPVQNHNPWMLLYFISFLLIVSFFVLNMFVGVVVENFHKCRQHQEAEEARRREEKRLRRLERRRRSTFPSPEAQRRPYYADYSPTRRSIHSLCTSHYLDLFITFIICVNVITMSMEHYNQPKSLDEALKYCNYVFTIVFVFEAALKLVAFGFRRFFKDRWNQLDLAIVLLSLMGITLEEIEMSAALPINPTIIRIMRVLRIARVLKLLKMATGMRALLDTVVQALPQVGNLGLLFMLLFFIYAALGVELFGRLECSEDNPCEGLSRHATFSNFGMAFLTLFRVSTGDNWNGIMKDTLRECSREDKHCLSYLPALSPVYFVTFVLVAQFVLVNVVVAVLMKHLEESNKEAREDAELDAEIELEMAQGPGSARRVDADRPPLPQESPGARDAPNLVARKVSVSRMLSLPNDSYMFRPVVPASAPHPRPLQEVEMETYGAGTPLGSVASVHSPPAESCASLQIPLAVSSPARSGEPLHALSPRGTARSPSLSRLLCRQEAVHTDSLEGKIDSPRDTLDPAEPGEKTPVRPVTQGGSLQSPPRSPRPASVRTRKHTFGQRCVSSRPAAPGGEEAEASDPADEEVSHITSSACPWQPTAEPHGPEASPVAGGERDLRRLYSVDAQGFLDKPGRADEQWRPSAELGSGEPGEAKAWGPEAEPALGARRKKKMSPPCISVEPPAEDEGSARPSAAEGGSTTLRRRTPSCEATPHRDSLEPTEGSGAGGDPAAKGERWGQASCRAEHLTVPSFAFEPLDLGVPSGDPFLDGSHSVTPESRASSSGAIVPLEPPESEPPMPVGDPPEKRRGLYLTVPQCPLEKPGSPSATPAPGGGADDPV

Row | SMILES | inhibition [1] | inhibition at 10 µM [2] [%]
1 | CCOC(=O)C1=C(C)NC(=O)N(CCC(=O)N(C)Cc2ccccc2)C1c1cccc([N+](=O)[O-])c1 (stereo not drawn) | inactive | < 50
2 | CCOC(=O)C1=C(C)NC(=O)N(CCC(=O)O)C1c1cccc([N+](=O)[O-])c1 (stereo not drawn) | inactive | < 50
3 | CCOC(=O)C1=C(C)NC(=O)N(CCC(=O)NN)C1c1cccc([N+](=O)[O-])c1 (stereo not drawn) | inactive | < 50
4 | CCOC(=O)C1=C(C)NC(=O)N(CCC(=O)NCC(c2ccccc2)c2ccccc2)C1c1cccc([N+](=O)[O-])c1 (stereo not drawn) | inactive | < 50
5 | CCOC(=O)C1=C(C)NC(=O)N(CCC(=O)NCc2ccccc2)C1c1cccc([N+](=O)[O-])c1 (stereo not drawn) | inactive | < 50
6 | CCOC(=O)C1=C(C)NC(=O)N(CCC(=O)OCc2cn(Cc3ccccc3)nn2)C1c1cccc([N+](=O)[O-])c1 (stereo not drawn) | Active | < 50
7 | CCOC(=O)CCN1C(=O)NC(C)=C(C(=O)OCC)C1c1cccc([N+](=O)[O-])c1 (stereo not drawn) | Active | > 75
8 | CCOC(=O)C1=C(C)NC(=O)N(CCC(N)=O)C1c1cccc([N+](=O)[O-])c1 (stereo not drawn) | inactive | < 50
9 | CCOC(=O)C1=C(C)NC(=O)N(CCC(=O)OCc2cn(CC(=O)c3ccccc3)nn2)C1c1cccc([N+](=O)[O-])c1 (stereo not drawn) | Active | < 50
10 | C#CCOC(=O)CCN1C(=O)NC(C)=C(C(=O)OCC)C1c1cccc([N+](=O)[O-])c1 (stereo not drawn) | Active | 50
11 | CCOC(=O)C1=C(C)NC(=O)N(CCC(=O)OC)C1c1cccc([N+](=O)[O-])c1 (stereo not drawn) | inactive | < 50
12 | CCOC(=O)C1=C(C)NC(=O)N(CCC(=O)OCCOC)C1c1cccc([N+](=O)[O-])c1 (stereo not drawn) | Active | 50
13 | CCOC(=O)C1=C(C)NC(=O)N(CCC(=O)OC(C)C)C1c1cccc([N+](=O)[O-])c1 (stereo not drawn) | inactive | < 50
14 | CCOC(=O)C1=C(C)NC(=O)N(CCC#N)C1c1cccc([N+](=O)[O-])c1 (stereo not drawn) | inactive | < 50
